Experimental data as given in the kinase profiling compilation of Christmann-Franck et al. (2016).

Tests used:
Conditions in all cases: compound 1.0 µM
[1] = molecular target: ABL1 (human) (UniProt P00519)
[2] = molecular target: AKT1 (human) (UniProt P31749)
[3] = molecular target: AURKA (human) (UniProt O14965)
[4] = molecular target: CDK2 (human) (UniProt P24941)
[5] = molecular target: CHEK1 (human) (UniProt O14757)
[6] = molecular target: CSNK2A1 (human) (UniProt P68400)
[7] = molecular target: FGFR1 (human) (UniProt P11362)
[8] = molecular target: GSK3B (human) (UniProt P49841)
[9] = molecular target: IKBKB (human) (UniProt O14920)
[10] = molecular target: IKBKE (human) (UniProt Q14164)
[11] = molecular target: INSR (human) (UniProt P06213)
[12] = molecular target: KDR (human) (UniProt P35968)
[13] = molecular target: LCK (human) (UniProt P06239)
[14] = molecular target: MAPK1 (human) (UniProt P28482)
[15] = molecular target: MAPK14 (human) (UniProt Q16539)
[16] = molecular target: MAPKAPK2 (human) (UniProt P49137)
[17] = molecular target: MET (human) (UniProt P08581)
[18] = molecular target: MST4 (human) (UniProt Q9P289)
[19] = molecular target: NTRK1 (human) (UniProt P04629)
[20] = molecular target: PAK4 (human) (UniProt O96013)
[21] = molecular target: PDPK1 (human) (UniProt O15530)
[22] = molecular target: PRKACA (human) (UniProt P17612)
[23] = molecular target: PRKCB1 (human) (UniProt P05771)
[24] = molecular target: ROCK1 (human) (UniProt Q13464)
[25] = molecular target: SRC (human) (UniProt P12931)
[26] = molecular target: TAOK3 (human) (UniProt Q9H2K8)
[27] = molecular target: EGFR (human) (UniProt P00533)

TAOK3 (human), sequence (Q9H2K8 whole entry, looked up): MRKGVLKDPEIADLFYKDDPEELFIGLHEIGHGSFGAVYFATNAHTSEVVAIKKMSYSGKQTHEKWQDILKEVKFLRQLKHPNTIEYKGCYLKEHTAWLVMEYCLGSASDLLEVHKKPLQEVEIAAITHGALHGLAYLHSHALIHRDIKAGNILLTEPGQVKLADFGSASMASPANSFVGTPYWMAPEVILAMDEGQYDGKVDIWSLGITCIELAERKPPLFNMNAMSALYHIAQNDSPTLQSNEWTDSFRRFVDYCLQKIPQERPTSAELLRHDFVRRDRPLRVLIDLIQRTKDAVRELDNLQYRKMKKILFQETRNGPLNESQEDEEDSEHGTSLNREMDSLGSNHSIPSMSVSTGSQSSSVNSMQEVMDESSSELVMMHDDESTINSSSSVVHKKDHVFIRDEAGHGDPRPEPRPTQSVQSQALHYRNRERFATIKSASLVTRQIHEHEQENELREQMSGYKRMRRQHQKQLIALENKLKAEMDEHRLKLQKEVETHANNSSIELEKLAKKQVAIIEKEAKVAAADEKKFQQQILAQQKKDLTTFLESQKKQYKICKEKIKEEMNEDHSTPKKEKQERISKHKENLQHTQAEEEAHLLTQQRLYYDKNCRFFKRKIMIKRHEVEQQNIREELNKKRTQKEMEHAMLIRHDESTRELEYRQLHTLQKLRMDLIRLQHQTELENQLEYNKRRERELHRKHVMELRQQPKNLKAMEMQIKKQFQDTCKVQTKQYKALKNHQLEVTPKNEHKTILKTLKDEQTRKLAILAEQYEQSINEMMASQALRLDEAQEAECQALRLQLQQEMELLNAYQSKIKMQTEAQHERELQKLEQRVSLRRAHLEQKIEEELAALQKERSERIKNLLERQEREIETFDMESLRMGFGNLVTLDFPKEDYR
SRC (human), sequence (P12931 whole entry, looked up): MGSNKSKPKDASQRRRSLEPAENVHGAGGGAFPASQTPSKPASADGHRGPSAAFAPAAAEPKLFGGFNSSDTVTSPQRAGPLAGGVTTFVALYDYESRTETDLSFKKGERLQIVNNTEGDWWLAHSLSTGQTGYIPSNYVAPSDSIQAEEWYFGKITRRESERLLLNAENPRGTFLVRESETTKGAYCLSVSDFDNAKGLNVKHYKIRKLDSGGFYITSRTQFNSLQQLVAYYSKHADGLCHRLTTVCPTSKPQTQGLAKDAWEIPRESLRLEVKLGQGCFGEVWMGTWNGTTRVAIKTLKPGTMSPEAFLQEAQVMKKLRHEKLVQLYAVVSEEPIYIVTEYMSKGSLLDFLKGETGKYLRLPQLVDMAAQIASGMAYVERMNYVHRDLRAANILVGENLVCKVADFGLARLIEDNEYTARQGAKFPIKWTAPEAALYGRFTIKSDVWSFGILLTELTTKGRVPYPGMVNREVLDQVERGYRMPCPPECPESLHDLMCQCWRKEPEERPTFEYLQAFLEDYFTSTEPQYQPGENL
FGFR1 (human), sequence (P11362 whole entry, looked up): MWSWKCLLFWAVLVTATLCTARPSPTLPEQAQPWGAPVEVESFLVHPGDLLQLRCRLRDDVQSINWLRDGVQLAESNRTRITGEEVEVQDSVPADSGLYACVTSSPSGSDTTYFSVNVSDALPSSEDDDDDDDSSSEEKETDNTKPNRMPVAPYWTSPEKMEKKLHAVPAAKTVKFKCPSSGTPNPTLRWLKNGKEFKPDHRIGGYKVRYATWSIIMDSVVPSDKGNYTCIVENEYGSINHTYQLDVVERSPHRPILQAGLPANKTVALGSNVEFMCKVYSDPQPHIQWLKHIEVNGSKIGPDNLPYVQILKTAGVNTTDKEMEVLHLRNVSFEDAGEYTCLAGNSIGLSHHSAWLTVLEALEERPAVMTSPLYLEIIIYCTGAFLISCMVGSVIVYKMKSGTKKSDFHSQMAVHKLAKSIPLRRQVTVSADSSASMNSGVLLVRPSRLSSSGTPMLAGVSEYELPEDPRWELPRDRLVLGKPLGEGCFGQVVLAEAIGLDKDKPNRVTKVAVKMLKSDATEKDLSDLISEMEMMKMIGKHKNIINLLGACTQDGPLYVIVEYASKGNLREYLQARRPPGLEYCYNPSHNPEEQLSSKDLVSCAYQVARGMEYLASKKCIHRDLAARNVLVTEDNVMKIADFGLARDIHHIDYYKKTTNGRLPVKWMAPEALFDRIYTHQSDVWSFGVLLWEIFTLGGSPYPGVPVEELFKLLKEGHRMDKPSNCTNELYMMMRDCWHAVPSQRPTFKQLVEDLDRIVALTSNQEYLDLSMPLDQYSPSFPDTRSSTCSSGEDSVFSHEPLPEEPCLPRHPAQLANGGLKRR
GSK3B (human), sequence (P49841 whole entry, looked up): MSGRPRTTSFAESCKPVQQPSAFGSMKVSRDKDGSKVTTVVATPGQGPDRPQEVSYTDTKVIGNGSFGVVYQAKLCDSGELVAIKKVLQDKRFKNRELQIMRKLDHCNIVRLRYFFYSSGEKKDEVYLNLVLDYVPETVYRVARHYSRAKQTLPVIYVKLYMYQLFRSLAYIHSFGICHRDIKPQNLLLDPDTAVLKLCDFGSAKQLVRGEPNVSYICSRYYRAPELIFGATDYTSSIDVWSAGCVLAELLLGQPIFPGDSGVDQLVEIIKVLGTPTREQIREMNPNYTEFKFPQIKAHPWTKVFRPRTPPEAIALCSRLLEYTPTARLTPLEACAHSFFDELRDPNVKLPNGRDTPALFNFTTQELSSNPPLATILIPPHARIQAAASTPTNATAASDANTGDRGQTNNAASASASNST
PRKCB1 (human), sequence (P05771 whole entry, looked up): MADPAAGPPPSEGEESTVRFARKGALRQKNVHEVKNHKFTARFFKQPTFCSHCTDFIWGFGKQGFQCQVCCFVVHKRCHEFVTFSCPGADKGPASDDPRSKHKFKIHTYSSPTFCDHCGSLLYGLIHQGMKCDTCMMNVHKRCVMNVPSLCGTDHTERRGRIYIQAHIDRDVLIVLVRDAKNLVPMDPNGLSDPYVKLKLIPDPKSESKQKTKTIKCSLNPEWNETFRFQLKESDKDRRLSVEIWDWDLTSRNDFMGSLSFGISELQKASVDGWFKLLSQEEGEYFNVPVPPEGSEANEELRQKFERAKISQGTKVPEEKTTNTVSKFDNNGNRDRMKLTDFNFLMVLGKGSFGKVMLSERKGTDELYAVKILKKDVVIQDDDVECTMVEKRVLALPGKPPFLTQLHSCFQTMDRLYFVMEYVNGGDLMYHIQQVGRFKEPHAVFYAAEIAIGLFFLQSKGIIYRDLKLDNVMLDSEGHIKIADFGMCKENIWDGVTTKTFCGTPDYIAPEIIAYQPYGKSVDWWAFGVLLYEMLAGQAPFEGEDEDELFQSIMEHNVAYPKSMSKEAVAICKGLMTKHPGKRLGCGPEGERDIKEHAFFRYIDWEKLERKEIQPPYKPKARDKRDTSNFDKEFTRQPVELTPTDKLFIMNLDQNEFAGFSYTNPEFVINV
AKT1 (human), sequence (P31749 whole entry, looked up): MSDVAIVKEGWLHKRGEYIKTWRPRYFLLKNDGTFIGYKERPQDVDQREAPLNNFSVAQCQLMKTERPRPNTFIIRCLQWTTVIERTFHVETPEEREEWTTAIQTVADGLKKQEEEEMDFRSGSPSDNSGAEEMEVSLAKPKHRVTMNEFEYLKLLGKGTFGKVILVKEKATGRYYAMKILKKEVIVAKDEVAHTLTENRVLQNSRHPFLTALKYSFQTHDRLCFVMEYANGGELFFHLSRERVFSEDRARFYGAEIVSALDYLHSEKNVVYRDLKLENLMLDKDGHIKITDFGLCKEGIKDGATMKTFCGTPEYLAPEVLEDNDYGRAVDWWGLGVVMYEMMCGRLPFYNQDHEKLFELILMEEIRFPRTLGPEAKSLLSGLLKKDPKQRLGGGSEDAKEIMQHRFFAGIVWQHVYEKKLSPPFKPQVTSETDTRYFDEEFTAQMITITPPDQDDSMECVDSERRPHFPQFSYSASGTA
MST4 (human), sequence (Q9P289 whole entry, looked up): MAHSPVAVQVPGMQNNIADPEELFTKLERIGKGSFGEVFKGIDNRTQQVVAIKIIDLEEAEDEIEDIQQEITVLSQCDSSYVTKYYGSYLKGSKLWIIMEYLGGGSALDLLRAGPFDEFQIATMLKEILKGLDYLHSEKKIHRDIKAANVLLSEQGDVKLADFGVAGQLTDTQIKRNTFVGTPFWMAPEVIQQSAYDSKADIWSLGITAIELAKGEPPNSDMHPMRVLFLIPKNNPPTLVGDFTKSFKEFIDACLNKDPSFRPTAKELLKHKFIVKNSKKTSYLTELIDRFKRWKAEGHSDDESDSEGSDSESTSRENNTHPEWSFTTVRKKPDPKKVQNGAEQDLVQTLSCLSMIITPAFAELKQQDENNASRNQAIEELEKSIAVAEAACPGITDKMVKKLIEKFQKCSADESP
MAPK14 (human), sequence (Q16539 whole entry, looked up): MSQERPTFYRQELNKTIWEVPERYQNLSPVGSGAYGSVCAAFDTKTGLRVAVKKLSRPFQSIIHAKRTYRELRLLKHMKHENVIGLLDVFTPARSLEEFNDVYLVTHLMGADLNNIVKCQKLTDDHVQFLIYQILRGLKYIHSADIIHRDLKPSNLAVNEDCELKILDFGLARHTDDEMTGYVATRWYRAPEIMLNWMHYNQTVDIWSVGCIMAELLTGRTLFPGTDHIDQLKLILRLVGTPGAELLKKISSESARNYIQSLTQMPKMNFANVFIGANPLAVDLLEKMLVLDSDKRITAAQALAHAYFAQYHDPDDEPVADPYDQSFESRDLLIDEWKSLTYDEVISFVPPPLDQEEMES
MAPKAPK2 (human), sequence (P49137 whole entry, looked up): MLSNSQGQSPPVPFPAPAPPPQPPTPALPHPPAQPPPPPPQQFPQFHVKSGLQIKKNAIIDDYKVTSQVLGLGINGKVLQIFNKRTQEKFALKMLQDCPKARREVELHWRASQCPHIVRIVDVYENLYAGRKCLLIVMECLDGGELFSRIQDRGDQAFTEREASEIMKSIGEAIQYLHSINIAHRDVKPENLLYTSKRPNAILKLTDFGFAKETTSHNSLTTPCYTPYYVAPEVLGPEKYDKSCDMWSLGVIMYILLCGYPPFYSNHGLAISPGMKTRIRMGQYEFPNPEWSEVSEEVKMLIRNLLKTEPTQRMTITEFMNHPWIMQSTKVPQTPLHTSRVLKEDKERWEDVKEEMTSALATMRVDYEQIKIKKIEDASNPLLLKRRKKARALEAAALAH

| SMILES | inhibition [1] | inhibition [2] | inhibition [3] | inhibition [4] | inhibition [5] | inhibition [6] | inhibition [7] | inhibition [8] | inhibition [9] | inhibition [10] | inhibition [12] | inhibition [14] | inhibition [16] | inhibition [17] | inhibition [18] | inhibition [21] | inhibition [23] | inhibition [24] | inhibition [25] | inhibition [26] | other results |
| --- | --- | --- | --- | --- | --- | --- | --- | --- | --- | --- | --- | --- | --- | --- | --- | --- | --- | --- | --- | --- | --- |
| CS(=O)(=O)CCNCc1ccc(-c2ccc3ncnc(Nc4ccc(OCc5cccc(F)c5)c(Cl)c4)c3c2)o1 | 0% | 0% | 0% | 0% | 0% | 0% | 0% | 0% | 0% | 0% | 0% | 0% | 0% | 0% | 0% | 0% | 0% | 0% | 0% | 0% | inhibition [11]: 0%; inhibition [13]: 0%; inhibition [15]: 0%; inhibition [19]: 0%; inhibition [20]: 0%; inhibition [22]: 0% |
| O=S(=O)(c1cccc2cnccc12)N1CCCNCC1 | 0% | 16% | 4.4% | 0% | 0% | 0% | 0% | 0% | 0% | 0% | 4% | 1.5% | 0% | 0% | 3.5% | 0% | 5.6% | 86.1% | 0.9% | 0% | inhibition [11]: 1.9%; inhibition [13]: 0%; inhibition [15]: 0.9%; inhibition [19]: 0.9% |
| O=C1NCCc2[nH]c(-c3ccnc(-c4ccccc4F)c3)cc21 | 0% | 3.5% | 0% | 7% | 1.8% | 20.5% | 0% | 3.4% | 0% | 0% | 11.9% | 11.7% | 73.7% | 30.4% | 10% | 0% | 0% | 5.4% | 9.9% | 33.8% | inhibition [13]: 0%; inhibition [15]: 6.7%; inhibition [20]: 4.1%; inhibition [22]: 4.3% |
| CS(=O)c1ccc(-c2nc(-c3ccc(F)cc3)c(-c3ccncc3)[nH]2)cc1 (stereo not given) | 3.15% | 0.56% | 0% | 0% | 0% | 0% | 0% | 52.6% | 0% | 0% | 13.5% | 11.7% | 0% | 0% | 0% | 0% | 23.6% | 4.88% | 16.6% | 15.7% | inhibition [11]: 0.995%; inhibition [13]: 7.1%; inhibition [19]: 4.44%; inhibition [20]: 6.86%; inhibition [22]: 18.4% |
| CC[C@@H](CO)Nc1nc(NCc2ccccc2)c2ncn(C(C)C)c2n1 | 8.86% | 0% | 0% | – | 0% | 1.93% | 0% | 0% | 0% | 0.63% | 1.35% | 0% | 0% | 0% | 0% | 0% | 8.46% | 0% | 4.9% | 3.7% | inhibition [27]: 5.07%; inhibition [11]: 1.28%; inhibition [13]: 0%; inhibition [15]: 5.04%; inhibition [19]: 3.46%; inhibition [20]: 2.92%; inhibition [22]: 5.58% |
| C#Cc1cccc(Nc2ncnc3cc(OCCOC)c(OCCOC)cc23)c1 | 80.6% | 11.1% | 39.1% | 0% | 0% | 0% | 0% | 13.6% | 6.5% | 6.5% | 63.6% | 2.3% | 0% | 19.4% | 18.7% | 0% | 27.9% | 0% | 36.7% | 0% | inhibition [11]: 3.4%; inhibition [15]: 0%; inhibition [19]: 18.5%; inhibition [20]: 5.7%; inhibition [22]: 0.1% |
| Cc1ccc(-c2nn(C(C)(C)C)c3ncnc(N)c23)cc1 | 82.9% | 10.6% | 8.8% | 2.5% | 0% | 1% | 50.1% | 2.8% | 4.4% | 3.9% | 70.6% | 6.6% | 0.2% | 11.3% | 14.8% | 0% | 17.5% | 2.8% | 93.4% | 17.4% | inhibition [13]: 94.5%; inhibition [15]: 33.7%; inhibition [19]: 49.8%; inhibition [20]: 5.3%; inhibition [22]: 29.2% |
